Test results as given in patent publication US9040502B2, “Anti-XDR-TB drug, anti-MDR-TB drug, and combination anti-tuberculosis drug” (priority 2008, dated 2015).

The compounds below were run on Mycobacterium tuberculosis XDR-TB (0306-0206). Conditions: ratio method, concentrations as in Table 1.
Assay type: cell-based
With `N[C@@H]1CON=C1O` [CS, cycloserine] the “Resistance or sensitivity of M. tuberculosis XDR-TB (0306-0206) to the drug” value (“Resistance or sensitivity” for short) was “sensitive”. With `CC[C@@H](CO)NCCN[C@@H](CC)CO` [EB, ethambutol] the “Resistance or sensitivity” value was “resistant”. For `NNC(=O)c1ccncc1` [INH, isonicotinic acid hydrazide], the “Resistance or sensitivity” value was “resistant”. For `Nc1ccc(C(=O)O)c(O)c1` [PAS, para-amino-salicylic acid], the “Resistance or sensitivity” value was “resistant”. For `[H]/N=C(/N)N[C@H]1[C@H](O)[C@@H](O)[C@H](O[C@@H]2O[C@@H](C)[C@](O)(C=O)[C@H]2O[C@@H]2O[C@@H](CO)[C@H](O)[C@@H](O)[C@@H]2NC)[C@@H](N/C(N)=N\[H])[C@@H]1O` [SM, streptomycin], the “Resistance or sensitivity” value was “resistant”. In the case of `CCc1cc(C(N)=S)ccn1` [TH, ethionamide], the “Resistance or sensitivity” value is reported as “resistant”. For enviomycin [EVM], the “Resistance or sensitivity” value was “resistant”.
